The target of experiment [1] is human recombinant dopamine D3 receptor (Homo sapiens (Human), UniProt P35462). Put plainly: Test of binding inhibition for dopamine D3 receptor ([3H]-Methylspiperone SPA). The following applies: Jump-In HEK cell membranes, 2 nM [3H]-Methylspiperone, 120 min at 25° C.; read-out: hD3_Ki. The protocol:
(§1) (Experimental Conditions)
Cell membranes: Jump-In HEK cell membranes expressing human recombinant dopamine D3 receptor (4 μg/well)
(§2) Non-specific ligand: (final concentration) 10 μM Butaclamol [(+)-Butaclamol Hydrochloride, D033, Sigma]
(§3) SPA beads solution: SPA beads [WGA PVT SPA Scintillation Beads, RPNQ0001 (500 mg), RPNQ0060 (2 g), PerkinElmer] (0.2 mg/well)
(§4) Incubation time and temperature: 120 min at 25° C.
(§5) Butaclamol or the compounds of the present invention were weighed and DMSO was added to make a 10 mM solution. This solution was diluted to each concentration.
[^3H]-Methylspiperone was weighed and the buffer solution was added to make a 6 nM solution.
(§6) SPA beads were weighed and stirred in water to make a 50 mg/mL solution. Using this solution, a mixture with the cell membranes was prepared.
(§7) Jump-In HEK Cell membranes (final reaction amount: 4 μg protein/well), the SPA beads solution (final reaction amount: 0.2 mg/well) and the buffer solution were mixed and the mixed solution was left still for 1 hour or more at 4° C. Then, 50 μL of the mixture was added to each well of the plate. In addition, 25 μL of 6 nM [^3H]-Methylspiperone (final concentration: 2 nM) was added to each well. […] Non-specific binding was calculated based on the radioactivity of [^3H]-Methylspiperone in the presence of 10 μM non-labeled Butaclamol. The total binding was calculated using the radioactivity of [H]-Methylspiperone in the absence of the compounds of the present invention (vehicle). The Ki values were calculated from dose-response curves.
(§8) Binding activities of the compounds of the present invention were calculated from the following Binding Inhibition Rate (%): Inhibition Rate (%)=[1−(c−a)/(b−a)]×100 • a: Average cpm of non-specific binding • b: Average cpm of total binding • c: Cpm in the presence of each test compound

Experiment [2] addresses human recombinant dopamine D2 receptor (Homo sapiens (Human), UniProt P14416). Put plainly: Test of binding inhibition for dopamine D2 receptor ([3H]-Methylspiperone SPA). The following applies: Jump-In HEK cell membranes, read-out: hD2_Ki. The protocol: as §1
Cell membranes: Jump-In HEK cell membranes expressing human recombinant dopamine D2 receptor (2 μg/well)
as §2, §3, §4, §5, §6
as §7, with “amount: 2” for “amount: 4”, “were mixed,” for “were mixed”, “plate.” for “plate. In addition, 25 μL of 6 nM [^3H]-Methylspiperone (final concentration: 2 nM) was added to each well.”, “of [^3H]-Methylspiperone” for “of [H]-Methylspiperone”, “invention (Vehicle).” for “invention (vehicle).”
as §8

Where [3] appears, read: 1.2 nM [3H]-Methylspiperone, 120 min at 25° C.

pKi: −log10 of the molar value. Like-named read-outs stand apart in the source and are kept apart here.

Chain of human recombinant dopamine D3 receptor (P35462 whole entry): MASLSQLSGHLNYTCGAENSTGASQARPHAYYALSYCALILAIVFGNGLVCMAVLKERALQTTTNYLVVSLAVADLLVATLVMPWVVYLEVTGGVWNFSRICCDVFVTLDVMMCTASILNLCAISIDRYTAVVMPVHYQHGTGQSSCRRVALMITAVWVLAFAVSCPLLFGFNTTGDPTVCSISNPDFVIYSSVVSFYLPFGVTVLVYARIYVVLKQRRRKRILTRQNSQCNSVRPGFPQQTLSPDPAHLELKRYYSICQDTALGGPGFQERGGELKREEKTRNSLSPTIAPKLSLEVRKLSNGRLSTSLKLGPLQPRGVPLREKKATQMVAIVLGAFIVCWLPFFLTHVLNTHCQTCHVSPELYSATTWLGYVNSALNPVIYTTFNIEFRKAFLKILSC
Chain of human recombinant dopamine D2 receptor (P14416 whole entry): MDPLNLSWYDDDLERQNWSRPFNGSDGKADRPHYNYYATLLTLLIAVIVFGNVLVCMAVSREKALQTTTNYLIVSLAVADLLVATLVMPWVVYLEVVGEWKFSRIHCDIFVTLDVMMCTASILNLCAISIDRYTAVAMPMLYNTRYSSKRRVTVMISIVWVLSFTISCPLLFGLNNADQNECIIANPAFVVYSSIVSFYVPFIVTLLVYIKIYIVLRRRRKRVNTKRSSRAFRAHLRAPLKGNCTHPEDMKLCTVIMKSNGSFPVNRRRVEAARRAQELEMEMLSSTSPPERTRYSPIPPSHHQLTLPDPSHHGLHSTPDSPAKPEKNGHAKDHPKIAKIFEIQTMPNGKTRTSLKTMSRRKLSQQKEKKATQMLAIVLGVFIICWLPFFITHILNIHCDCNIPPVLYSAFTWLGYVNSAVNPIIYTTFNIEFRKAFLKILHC

Consider `C[C@@H](Oc1nc2c(s1)CCN(CC[C@H]1CC[C@H](NC(=O)COc3cnn(C)c3)CC1)CC2)C(F)(F)F` [Example I-120], for which the figures for the pKi in experiment [1] and in experiment [2] (setting [3]) were 9.08 and 6.08, respectively.

Regarding `O=C(N[C@H]1CC[C@H](CCN2CCc3ccc(OCC(F)F)nc3CC2)CC1)c1cccnc1C(F)F` [Example I-121], the results for the pKi in experiment [1] and in experiment [2] (setting [3]) were 9.59 and 6.19, respectively.

As to `Cn1c(C(=O)N[C@H]2CC[C@H](CCN3CCc4nc(OCC(F)(F)F)sc4CC3)CC2)ccc(F)c1=O` [Example I-122], the pKi in experiment [1] was 9.62; in experiment [2] (setting [3]), 6.44.

Take `Cc1nnc(CC(=O)N[C@H]2CC[C@H](CCN3CCc4nc(O[C@H](C)C(F)(F)F)sc4CC3)CC2)s1` [Example I-125]: the results for the pKi in experiment [1] and in experiment [2] (setting [3]) were 9.21 and 5.96, respectively.

In the case of `Cc1nnc(CC(=O)N[C@H]2CC[C@](F)(CCN3CCc4nc(O[C@H](C)C(F)(F)F)sc4CC3)CC2)s1` [Example I-126], the pKi in experiment [1] is 9.04; in experiment [2] (setting [3]), under 5.64.

As for `Cc1ncc(OCC(=O)N[C@H]2CC[C@H](CCN3CCc4ccc(O[C@H](C)C(F)(F)F)nc4CC3)CC2)cn1` [Example I-127], the pKi was 9.92 in experiment [1] and 6.39 in experiment [2] (setting [3]).

On to `C[C@@H](Oc1ccc2c(n1)CCN(CC[C@H]1CC[C@H](NC(=O)Cc3cnn(C)n3)CC1)CC2)C(F)(F)F` [Example I-128], for which the values for the pKi in experiment [1] and in experiment [2] (setting [3]) were 10.14 and 6.29, respectively.

On to `Cc1nnc(CC(=O)N[C@H]2CC[C@H](CCN3CCc4ccc(O[C@H](C)C(F)(F)F)nc4CC3)CC2)s1` [Example I-129], for which the pKi in experiment [1] is 10.07; in experiment [2] (setting [3]), 6.54.

On to `Cc1nc(CC(=O)N[C@H]2CC[C@H](CCN3CCc4ccc(O[C@H](C)C(F)(F)F)nc4CC3)CC2)nn1C` [Example I-130], for which the pKi was 9.31 in experiment [1] and 5.92 in experiment [2] (setting [3]).

Regarding `Cc1ncc(CC(=O)N[C@H]2CC[C@H](CCN3CCc4ccc(O[C@H](C)C(F)(F)F)nc4CC3)CC2)cn1` [Example I-131], the pKi in experiment [1] is 9.46; in experiment [2] (setting [3]), 6.39.

Turning to `C[C@@H](Oc1ccc2c(n1)CCN(CC[C@H]1CC[C@H](NC(=O)c3cccc(=O)n3C)CC1)CC2)C(F)(F)F` [Example I-132], the values for the pKi in experiment [1] and in experiment [2] (setting [3]) were 9.92 and 6.52, respectively.

Consider `C[C@@H](Oc1ccc2c(n1)CCN(CC[C@H]1CC[C@H](NC(=O)COc3cnn(C)c3)CC1)CC2)C(F)(F)F` [Example I-133], for which the pKi in experiment [1] was 9.82; in experiment [2] (setting [3]), 6.72.

With `Cc1cnc(CC(=O)N[C@H]2CC[C@](F)(CCN3CCc4ccc(CCC(F)(F)F)nc4CC3)CC2)o1` [Example I-141], the pKi in experiment [1] was 9.39; in experiment [2] (setting [3]), under 5.64.

`Cn1ncc(CC(=O)N[C@H]2CC[C@](F)(CCN3CCc4ccc(CCC(F)(F)F)nc4CC3)CC2)n1` [Example I-144]: the pKi was 9.49 in experiment [1] and 5.82 in experiment [2] (setting [3]).

Regarding `O=C(N[C@H]1CC[C@](F)(CCN2CCc3nc(OCC(F)(F)F)sc3CC2)CC1)c1cccnc1C(F)F` [Example I-159], the pKi in experiment [1] was 9.44; in experiment [2] (setting [3]), 6.24.

For the compound `O=C(N[C@H]1CC[C@](F)(CCN2CCc3nc(OCC(F)F)sc3CC2)CC1)c1cccnc1C(F)F` [Example I-160], the pKi was 9.08 in experiment [1] and 5.96 in experiment [2] (setting [3]).

Consider `O=C(N[C@H]1CC[C@H](CCN2CCc3nc(OCC(F)F)sc3CC2)CC1)c1cccnc1C(F)F` [Example I-161], for which the values for the pKi in experiment [1] and in experiment [2] (setting [3]) were 9.49 and 6.03, respectively.

For the compound `CC(F)(F)COc1nc2c(s1)CCN(CC[C@]1(F)CC[C@@H](NC(=O)c3cccnc3C(F)F)CC1)CC2` [Example I-162], the pKi in experiment [1] is 9.25; in experiment [2] (setting [3]) it was 6.13.

For `CC(F)(F)COc1nc2c(s1)CCN(CC[C@H]1CC[C@H](NC(=O)c3cccnc3C(F)F)CC1)CC2` [Example I-163], the values for the pKi in experiment [1] and in experiment [2] (setting [3]) were 9.51 and 6.37, respectively.

In the case of `O=C(N[C@H]1CC[C@H](CCN2CCc3nc(OC4CC(F)(F)C4)sc3CC2)CC1)c1cccnc1C(F)F` [Example I-168], the figures for the pKi in experiment [1] and in experiment [2] (setting [3]) were 9.51 and 6.00, respectively.

Take `C[C@@H](Oc1ccc2c(n1)CCN(CC[C@]1(F)CC[C@@H](NC(=O)Cc3cnn(C)n3)CC1)CC2)C(F)(F)F` [Example I-174]: the figures for the pKi in experiment [1] and in experiment [2] (setting [3]) were 9.48 and 6.43, respectively.

With `Cc1nc(CC(=O)N[C@H]2CC[C@](F)(CCN3CCc4ccc(O[C@H](C)C(F)(F)F)nc4CC3)CC2)nn1C` [Example I-180], the pKi in experiment [1] was 9.07; in experiment [2] (setting [3]) it was 6.07.

For `Cn1c(C(=O)NC23CCC(CCN4CCc5nc(OCC(F)(F)F)sc5CC4)(CC2)CC3)cccc1=O` [II-1], the pKi is 9.77 in experiment [1] and 6.08 in experiment [2] ([3H]-Methylspiperone 1.2 nM).

Take `CN1Cc2c(C(=O)NC34CCC(CCN5CCc6nc(OCC(F)(F)F)sc6CC5)(CC3)CC4)cccc2C1=O` [II-2]: the pKi in experiment [1] was 10.10; in experiment [2] ([3H]-Methylspiperone 1.2 nM), under 5.66.

For the compound `O=C(NC12CCC(CCN3CCc4nc(OCC(F)(F)F)sc4CC3)(CC1)CC2)c1cccnc1C(F)F` [II-3], the pKi in experiment [1] is 9.54; in experiment [2] ([3H]-Methylspiperone 1.2 nM), 5.85.

Turning to `Cn1ncc(CC(=O)NC23CCC(CCN4CCc5nc(OCC(F)(F)F)sc5CC4)(CC2)CC3)n1` [II-4], the pKi in experiment [1] is 9.80; in experiment [2] ([3H]-Methylspiperone 1.2 nM) it was 5.85.

On to `Cc1nnc(CC(=O)NC23CCC(CCN4CCc5nc(OCC(F)(F)F)sc5CC4)(CC2)CC3)o1` [II-5], for which the values for the pKi in experiment [1] and in experiment [2] ([3H]-Methylspiperone 1.2 nM) were 9.70 and 5.89, respectively.

For `Cc1ncc(CC(=O)NC23CCC(CCN4CCc5nc(OCC(F)(F)F)sc5CC4)(CC2)CC3)cn1` [II-6], the pKi in experiment [1] was 9.46; in experiment [2] ([3H]-Methylspiperone 1.2 nM) it was 5.92.

In the case of `Cc1ncccc1C(=O)NC12CCC(CCN3CCc4nc(OCC(F)(F)F)sc4CC3)(CC1)CC2` [II-7], the pKi is 9.41 in experiment [1] and 5.77 in experiment [2] ([3H]-Methylspiperone 1.2 nM).

For the compound `CN1Cc2c(C(=O)NC34CCC(CCN5CCc6nc(OCC(F)F)sc6CC5)(CC3)CC4)cccc2C1=O` [II-10], the pKi in experiment [1] is 9.30; in experiment [2] ([3H]-Methylspiperone 1.2 nM) it was under 5.64.

Consider `Cc1ncccc1C(=O)NC12CCC(CCN3CCc4ccc(OCC(F)F)nc4CC3)(CC1)CC2` [II-13], for which the pKi in experiment [1] was 9.25; in experiment [2] ([3H]-Methylspiperone 1.2 nM), 5.68.

Consider `Cc1cnc(CC(=O)NC23CCC(CCN4CCc5ccc(OCC(C)(F)F)nc5CC4)(CC2)CC3)o1` [II-14], for which the pKi in experiment [1] is 9.64; in experiment [2] ([3H]-Methylspiperone 1.2 nM), 6.12.

Consider `Cc1ncc(/C=C/C(=O)NC23CCC(CCN4CCc5nc(OCC(F)(F)F)sc5CC4)(CC2)CC3)cn1` [II-15], for which the pKi is 9.80 in experiment [1] and 6.62 in experiment [2] ([3H]-Methylspiperone 1.2 nM).

Take `Cc1nnc(CC(=O)N[C@H]2CC[C@](F)(CCN3CCc4ccc(CCC(F)(F)F)nc4CC3)CC2)s1` [III-1]: the pKi in experiment [1] was 9.85; in experiment [2] (setting [3]), under 5.64.

On to `Cc1nc(CC(=O)N[C@H]2CC[C@](F)(CCN3CCc4ccc(CCC(F)(F)F)nc4CC3)CC2)nn1C` [III-2], for which the pKi in experiment [1] is 9.80; in experiment [2] (setting [3]) it was 5.92.

Regarding `Cc1cc(CC(=O)N[C@H]2CC[C@](F)(CCN3CCc4ccc(CCC(F)(F)F)nc4CC3)CC2)on1` [III-3], the results for the pKi in experiment [1] and in experiment [2] (setting [3]) were 10.54 and under 5.64, respectively.

Take `Cc1nnc(CC(=O)N[C@H]2CC[C@H](CCN3CCc4nc(O[C@@H](C)C(F)(F)F)sc4CC3)CC2)o1` [III-4]: the figures for the pKi in experiment [1] and in experiment [2] (setting [3]) were 9.80 and 6.11, respectively.

For the compound `C[C@H](Oc1nc2c(s1)CCN(CC[C@H]1CC[C@H](NC(=O)c3cccc(=O)n3C)CC1)CC2)C(F)(F)F` [III-5], the pKi is 9.64 in experiment [1] and 6.00 in experiment [2] (setting [3]).

For `C[C@H](Oc1nc2c(s1)CCN(CC[C@H]1CC[C@H](NC(=O)Cc3cnn(C)n3)CC1)CC2)C(F)(F)F` [III-6], the pKi in experiment [1] is 9.82; in experiment [2] (setting [3]), 5.80.

For the compound `Cc1nnc(CC(=O)N[C@H]2CC[C@H](CCN3CCc4ccc(O[C@@H](C)C(F)(F)F)nc4CC3)CC2)o1` [III-7], the figures for the pKi in experiment [1] and in experiment [2] (setting [3]) were 10.05 and 6.54, respectively.

On to `Cc1nnc(CC(=O)N[C@H]2CC[C@](F)(CCN3CCc4nc(OCC(F)(F)C(F)F)sc4CC3)CC2)o1` [III-8], for which the pKi is 9.80 in experiment [1] and 6.32 in experiment [2] (setting [3]).

For `Cn1ncc(CC(=O)N[C@H]2CC[C@](F)(CCN3CCc4nc(OCC(F)(F)C(F)F)sc4CC3)CC2)n1` [III-9], the pKi was 10.09 in experiment [1] and 6.11 in experiment [2] (setting [3]).

The values are drawn from US11578084B2, “Condensed ring compounds having dopamine D3 receptor antagonistic effect” (Shionogi & Co., Ltd., priority 2018, dated 2023).
